PMC10674894 (Viruses, 2023)

What was measured:
Vero cells = test: Cytotoxicity MTT assay in Vero cells (MNTD, CC50); format: cell-based, African green monkey; conditions: Table S1; Vero cells
CHIKV DRDE-07 = test: In vitro screening against CHIKV (CPE inhibition and MTT cell viability); format: cell-based, chikungunya virus; conditions: Table S1, CHIKV-infected Vero cells; for % Cell viability: 72 hpi, MTT assay; for CPE: arbitrary score of cytopathic effect at >48 hpi

Row | Compound | MNTD (Vero cells) [µM] | % Cell viability (CHIKV DRDE-07) [%] | CPE (CHIKV DRDE-07)
1 | CC(=O)Cc1noc(-c2ccccn2)n1 [DCR84, 1-[5-(pyridin-2-yl)-1,2,4-oxadiazol-3-yl]propan-2-one] | 125 | 2.86 | ++++ (>60% (++++))
2 | CC(=O)Cc1noc(-c2ccc(Br)cc2)n1 [DCR85, 1-[5-(4-bromophenyl)-1,2,4-oxadiazol-3-yl]propan-2-one] | 222.34 | 10.38 | ++++ (>60% (++++))
3 | C#CCOC(=O)C1=C(C)NC(=O)NC1c1ccc(OC)cc1 (stereo not drawn) [DCR86, prop-2-yn-1-yl 4-(4-methoxyphenyl)-6-methyl-2-oxo-1,2,3,4-tetrahydropyrimidine-5-carboxylate] | 208.12 | 10.59 | ++++ (>60% (++++))
4 | C#CCOC(=O)C1=C(C)NC(=O)NC1c1ccc(CC)cc1 (stereo not drawn) [DCR87, prop-2-yn-1-yl 4-(4-ethylphenyl)-6-methyl-2-oxo-1,2,3,4-tetrahydropyrimidine-5-carboxylate] | 104.58 | 11.61 | ++++ (>60% (++++))
5 | C#CCOC(=O)C1=C(C)NC(=O)NC1c1ccc(Cl)cc1 (stereo not drawn) [DCR88, prop-2-yn-1-yl 4-(4-chlorophenyl)-6-methyl-2-oxo-1,2,3,4-tetrahydropyrimidine-5-carboxylate] | 205.1 | 11.05 | ++++ (>60% (++++))
6 | C#CCOC(=O)C1=C(C)NC(=O)NC1c1cccc(Cl)c1 (stereo not drawn) [DCR89, prop-2-yn-1-yl 4-(3-chlorophenyl)-6-methyl-2-oxo-1,2,3,4-tetrahydropyrimidine-5-carboxylate] | 205.1 | 10.94 | ++++ (>60% (++++))
7 | C#CCOC(=O)C1=C(C)NC(=O)NC1c1ccc(F)cc1 (stereo not drawn) [DCR90, prop-2-yn-1-yl 4-(4-fluorophenyl)-6-methyl-2-oxo-1,2,3,4-tetrahydropyrimidine-5-carboxylate] | 433.62 | 12.59 | ++++ (>60% (++++))
8 | C#CCOC(=O)C1=C(C)NC(=O)NC1c1ccc(C(F)(F)F)cc1 (stereo not drawn) [DCR91, prop-2-yn-1-yl 6-methyl-2-oxo-4-[4-(trifluoromethyl)phenyl]-1,2,3,4-tetrahydropyrimidine-5-carboxylate] | 369.52 | 13.12 | ++++ (>60% (++++))
9 | C#CCOC(=O)C1=C(C)NC(=O)NC1c1ccccc1 (stereo not drawn) [DCR92, prop-2-yn-1-yl 6-methyl-2-oxo-4-phenyl-1,2,3,4-tetrahydropyrimidine-5-carboxylate] | 462.48 | 12.8 | ++++ (>60% (++++))
10 | C#CCOC(=O)C1=C(C)NC(=O)NC1c1ccc(OCC)cc1 (stereo not drawn) [DCR94, prop-2-yn-1-yl 4-(4-ethoxyphenyl)-6-methyl-2-oxo-1,2,3,4-tetrahydropyrimidine-5-carboxylate] | 198.83 | 19.5 | ++++ (>60% (++++))
11 | C#CCOC(=O)C1=C(C)NC(=O)NC1c1cccc(F)c1 (stereo not drawn) [DCR95, prop-2-yn-1-yl 4-(3-fluorophenyl)-6-methyl-2-oxo-1,2,3,4-tetrahydropyrimidine-5-carboxylate] | 433.62 | 11.54 | ++++ (>60% (++++))
12 | COc1ccc(C2NC(=O)NC(C)=C2C(=O)OCCC(C)C)cc1 (stereo not drawn) [DCR96, 3-methylbutyl 4-(4-methoxyphenyl)-6-methyl-2-oxo-1,2,3,4-tetrahydropyrimidine-5-carboxylate] | 376.06 | 11.71 | ++++ (>60% (++++))
13 | COc1ccc(C2NC(=O)NC(C)=C2C(=O)OCCc2ccccc2)cc1 (stereo not drawn) [DCR97, 2-phenylethyl 4-(4-methoxyphenyl)-6-methyl-2-oxo-1,2,3,4-tetrahydropyrimidine-5-carboxylate] | 170.57 | 11.19 | ++++ (>60% (++++))
14 | C=CCOC(=O)C1=C(C)NC(=O)NC1c1ccc(OC)cc1 (stereo not drawn) [DCR98, prop-2-en-1-yl 4-(4-methoxyphenyl)-6-methyl-2-oxo-1,2,3,4-tetrahydropyrimidine-5-carboxylate] | 413.46 | 12.66 | ++++ (>60% (++++))
15 | COc1ccc(C2NC(=O)NC(C)=C2C(=O)OCC(C)C)cc1 (stereo not drawn) [DCR99, 2-methylpropyl 4-(4-methoxyphenyl)-6-methyl-2-oxo-1,2,3,4-tetrahydropyrimidine-5-carboxylate] | 392.64 | 11.29 | ++++ (>60% (++++))
16 | COc1ccc(C2NC(=O)NC(C)=C2C(=O)OCc2ccc(Cl)cc2)cc1 (stereo not drawn) [DCR100, (4-chlorophenyl)methyl 4-(4-methoxyphenyl)-6-methyl-2-oxo-1,2,3,4-tetrahydropyrimidine-5-carboxylate] | 323.15 | 12.84 | ++++ (>60% (++++))
17 | COc1ccc(COC(=O)C2=C(C)NC(=O)NC2c2ccc(OC)cc2)cc1 (stereo not drawn) [DCR101, 4-methoxybenzyl 4-(4-methoxyphenyl)-6-methyl-2-oxo-1,2,3,4-tetrahydropyrimidine-5-carboxylate] | 250 | 7.02 | ++++ (>60% (++++))
18 | COc1ccc(C2NC(=O)NC(C)=C2C(=O)OCc2ccccc2)cc1 (stereo not drawn) [DCR102, benzyl 4-(4-methoxyphenyl)-6-methyl-2-oxo-1,2,3,4-tetrahydropyrimidine-5-carboxylate] | 250 | 8.11 | ++++ (>60% (++++))
19 | C=C(C)CCOC(=O)C1=C(C)NC(=O)NC1c1ccc(OC)cc1 (stereo not drawn) [DCR103, 3-methylbut-3-en-1-yl 4-(4-methoxyphenyl)-6-methyl-2-oxo-1,2,3,4-tetrahydropyrimidine-5-carboxylate] | 250 | 21.11 | ++++ (>60% (++++))
20 | CC1=C(C(=O)OCC[N+](C)(C)C)C(c2ccc([N+](=O)[O-])cc2)NC(=O)N1 (stereo not drawn) [DCR104, N,N,N-trimethyl-2-({[6-methyl-4-(4-nitrophenyl)-2-oxo-1,2,3,4-tetrahydropyrimidin-5-yl]carbonyl}oxy)ethanaminium] | 125 | 9.09 | ++++ (>60% (++++))
21 | CC1=C(C(=O)OCC[N+](C)(C)C)C(c2ccc(C)cc2)NC(=O)N1 (stereo not drawn) [DCR105, N,N,N-trimethyl-2-({[6-methyl-4-(4-methylphenyl)-2-oxo-1,2,3,4-tetrahydropyrimidin-5-yl]carbonyl}oxy)ethanaminium] | 125 | 2.45 | ++++ (>60% (++++))
22 | CC1=C(C(=O)OCC[N+](C)(C)C)C(c2ccc(Cl)cc2)NC(=O)N1 (stereo not drawn) [DCR106, 2-({[4-(4-chlorophenyl)-6-methyl-2-oxo-1,2,3,4-tetrahydropyrimidin-5-yl]carbonyl}oxy)-N,N,N-trimethylethanaminium] | 62.5 | 3.33 | ++++ (>60% (++++))
23 | COc1ccc(C2NC(=O)NC(C)=C2C(=O)OCC[N+](C)(C)C)cc1 (stereo not drawn) [DCR107, {2‐[4‐(4‐methoxyphenyl)‐6‐methyl‐2‐oxo‐1,2,3,4‐tetrahydropyrimidine‐5‐carbonyloxy]ethyl}trimethylazanium] | 62.5 | 13.22 | ++++ (>60% (++++))
